Results from US10765748B2, “Composition and methods for tethering bioactive peptides to metal oxide surfaces” (University of Akron, priority 2014, dated 2020).
Entries after “also recorded” stand apart in the source; their conditions may differ. Peptide text beside a SMILES is read from it. * marks the point of attachment. X1 = O=C(CCc1ccc(O)c(O)c1)NCCCC[C@H](NC(=O)CCc1ccc(O)c(O)c1)C(=O)*; FITC = O=C1OC2(c3ccc(O)cc3Oc3cc(O)ccc32)c2ccc(NC(=S)*)cc21; Dihydrocaffeoyl = O=C(CCc1ccc(O)c(O)c1)*

What was measured:
[1] = Fluorescence intensity of FITC-labeled OGP-Cat immobilized on TiO2; assay type: physicochemical; conditions: 3 days in 25 mM HEPES buffer pH 7.4
Experimental: Fluorescein-labeled modular peptide (FITC-labeled OGP-Cat) was also synthesized to visualize the presence of the immobilized peptides on TiO2 surface using fluorescence microscopy. (See, Example 13). After immobilization of FITC-labeled OGP-Cat onto TiO2 surfaces, the fluorescence intensity was much stronger compared to the control sample, which incubating TiO2-coated substrates in a solution of FITC at identical concentration. […] See, FIGS. 10A-B.
To study the stability of sequestered modular peptides on targeting surfaces, the modular peptide immobilized TiO2 substrates were immersed in 25 mM HEPES buffer (pH=7.4 at 25° C.) and incubated for different durations. The mean intensity of FITC-labeled OGP-Cat immobilized TiO2 substrates after incubation was quantified to detect the diffusion of FITC-labeled OGP-Cat into surrounding solution. (See FIG. 11). […] It is believed that the mismatch of retention time for the monovalent ligands may be attributed to the sensitivity difference of XPS and fluorescence microscopy. […]
The florescence intensity of FITC-OGP-(Cat)n (n=1, 2, and 4) on TiO2, Fe2O3, Fe3O4, ZrO2, CeO2, SiO2, and Au substrates was viewed with an inverted IX81 Microscope (Olympus, Center Valley, Pa.) with mercury bulb excitation and the appropriate filters. […] The mean intensity was calculated based on at least 10 randomly chosen sites observed under the same conditions.

[2] = Live/Dead viability assay; assay type: cell-based; conditions: mouse; immobilized on TiO2 substrates, cultured 24 hours
Experimental: The toxicity of the dendron of the embodiments of the present invention was tested using mouse calvarial pre-osteoblast cells ([…]) cells. The MC3T3-E1 cells were seeded on the TiO2 substrates with immobilized FITC-labeled OGP-Cat and cultured for 24 hours. […] The cells were well spread on the peptide-bearing surfaces, which is a consistent with an adherent proliferating cell population. See also, Example 17.
MC3T3-E1 mouse preosteoblast (passage 17) were expanded and cultured in α-MEM media (Gibco, Life Technologies, Grand Island, N.Y.) supplemented with 10% fetal bovine serum (FBS) (Invitrogen), 100 units/mL penicillin (Invitrogen), and 100 μg/mL streptomycin (Invitrogen) at 37° C. in a 5% CO2 humidified atmosphere. The cells were subcultured every 3 days in the presence of 0.25% (w/v) trypsin and 0.5% (w/v) ethylenediaminetetraacetic acid tetrasodium salt (EDTA) solution. […]
Viability of the cell culture of Example 16 above was evaluated using a Live/Dead viability/cytotoxicity kit (Invitrogen, UK). […] The staining solution was removed and the samples were viewed under the IX81 fluorescence microscope (Olympus) with 494 nm (green, Calcein) and 528 nm (red, EthD-1) emission filters. For quantitative analysis a total of 250 cells were counted from each sample over 25 randomly chosen areas and the viable and non-viable cells counts were recorded.

[3] = QCM-d adsorption of OGP-(Cat)4 to Al2O3; assay type: binding; conditions: c=10 μM
Experimental: (§1) The adsorption of tetravalent binding ligand OGP-(Cat)4 to a wide range of materials was tested to identify common features of materials to which the catechol-bearing ligands of various embodiments of the present invention strongly bind. […] While not wanting to be bound by theory, it is believed that this is because the coordination bond between catechol and metals with empty d-orbitals or f-orbitals provides a stronger interaction than Hydrogen bonding. […] Therefore, it is believed that OGP-(Cat)4 will be highly useful for the functionalization of transition metal oxides.

[4] = QCM-d adsorption of OGP-(Cat)4 to hydroxyapatite; assay type: binding; conditions: c=10 μM
Experimental: as §1

[5] = QCM-d adsorption of OGP-(Cat)4 to CeO2; assay type: binding; conditions: c=1 μM
Experimental: as §1
(§2) Quartz crystal microbalance with dissipation (QCM-d) was used to determine the binding isotherm for OGP-(Cat)4 on TiO2, Fe2O3, Fe3O4, ZrO2, CeO2, SiO2, and Au substrates. The AT cut sensors were purchased from Biolin Scientific AB (Sweden) and cleaned before use according to the protocol provided by the company. The sensor was excited at 5 MHz as its fundamental frequency. The frequency shift (Δf) and dissipation (ΔD) were measured at 3rd, 5th, 7th, 9th, 11th and 13th overtones. 25 mM HEPES buffer (pH=7.40 at 25° C.) was used as the flow medium. Sensors were mounted in the modules immediately after cleaning. […] Then solutions of catechol-bearing peptide (OGP-(Cat)4) in HEPES buffer were introduced and the flow continued until the adsorption reached its equilibrium state. […]

[6] = QCM-d adsorption of OGP-(Cat)4 to ZrO2; assay type: binding; conditions: c=1 μM
Experimental: as §1, §2

[7] = QCM-d adsorption of OGP-(Cat)4 to iron oxide; assay type: binding; conditions: c=1 μM
Experimental: as §1, §2

[8] = XPS of immobilized modular peptides on TiO2 substrates and retention in HEPES buffer; assay type: physicochemical; conditions: HEPES buffer pH 7.4
Experimental: Immobilization of peptides onto TiO2 surface was accomplished by immersing the TiO2 substrates into the corresponding modular peptide solution and incubating it overnight at ambient temperature. The successful immobilization of OGP-Cat and OGP-(Cat)4 onto TiO2-coated substrates were confirmed by XPS. Nitrogen is the element contained only in the modular peptides while not in bare TiO2, as shown in the XPS survey scan of bare TiO2 and OGP-(Cat)4 in FIG. 9A. […] It is noted that the N1s peaks in FIG. 9B are normalized to the highest intensity (O1s) for comparison of the signal to noise ratio.
To quantify the increase in nitrogen due to adsorption of OGP-Cat and OGP-(Cat)4, the nitrogen content (N1s) was normalized with Ti content (Ti2p), and compared with TiO2 substrate after incubation in HEPES buffer overnight (TiO2 as control), as show in Table 2, below.
To study the stability of sequestered modular peptides on targeting surfaces, the modular peptide immobilized TiO2 substrates were immersed in 25 mM HEPES buffer (pH=7.4 at 25° C.) and incubated for different durations. The mean intensity of FITC-labeled OGP-Cat immobilized TiO2 substrates after incubation was quantified to detect the diffusion of FITC-labeled OGP-Cat into surrounding solution. (See FIG. 11). […]

[9] = QCM-d adsorption of OGP-(Cat)4 to gold; assay type: binding
Experimental: as §1, §2

[10] = QCM-d adsorption of catechol-functionalized dendrons to TiO2 surface; assay type: binding; conditions: for concentration to obtain ~6 Hz frequency shift: TiO2, 25° C., pH 7.4; for apparent disassociation constant Kd: 25° C., pH 7.4, single-site specific binding model; for maximum adsorption (Bmax): single-site specific binding model
Experimental: The adsorption processes of all molecules to TiO2 surfaces at 25° C. and pH 7.4 were monitored by quartz crystal microbalance with dissipation (QCM-d). (See Example 7). Multivalent binding effects that enhanced the binding affinity were clear. In FIG. 2, to obtain a similar level of adsorption, ˜6 Hz frequency shift, the concentration of monovalent ligand, OGP-Cat, was 13 μM, while that of tetravalent ligand, OGP-(Cat)4 and OGP-PEG-(Cat)4, was 0.32 and 0.16 μM, respectively due to the mass differences. A much smaller amount of sample (˜80-fold less) was needed for the tetravalent ligand OGP-PEG-(Cat)4 compared with the monovalent ligand OGP-Cat to achieve the same level (mass) of surface adsorption. […] Under similar conditions, the monovalent ligand was partially washed away. The adsorption kinetics were recorded by QCM-d, with regard to OGP-PEG-(Cat)4, and 2 hours were needed to reach the equilibrium state at a concentration of 0.16 μM.
To quantitatively compare the binding affinities of the multivalent binding ligands, their adsorption properties at several different concentrations were measured. The solutions at higher concentrations were switched to flow above the sensor, until the adsorption of previous solution at lower concentration reached the equilibrium state (the change in frequency shift is smaller than the signal fluctuation, 0.05 Hz/min), taking OGP-Cat as an example shown in FIG. 3A. In these experiments, the adsorption of OGP-Cat onto TiO2 surface at different concentrations was measured by QCM-d, while the concentration was increased sequentially (c1=0.068 μmol/L, c2=0.34 μmol/L, c3=1.8 μmol/L, c4=7.3 μmol/L, c5=13 μmol/L, and c6=34 μmol/L). At last the adsorbed layer was washed with 25 mM HEPES buffer. The flow rate was 0.150 mL/min. Three independent measurements (Sensors 1-3) are shown on FIG. 3A. The corresponding frequency shift was calculated using Sauerbrey Equation to get the adsorbed area mass. The adsorption isotherm of each molecule was drawn and fit with a single-site specific binding model to get the apparent disassociation constant (Kd) and maximum adsorption (Bmax) of OGP-Cat as in FIG. 3B and others in FIGS. 4A-F from the adsorbed area mass at the respective concentrations.
Quartz crystal microbalance with dissipation (QCM-d) was used to determine the binding isotherm for OGP-(Cat)4 on TiO2, Fe2O3, Fe3O4, ZrO2, CeO2, SiO2, and Au substrates. The AT cut sensors were purchased from Biolin Scientific AB (Sweden) and cleaned before use according to the protocol provided by the company. The sensor was excited at 5 MHz as its fundamental frequency. The frequency shift (Δf) and dissipation (ΔD) were measured at 3rd, 5th, 7th, 9th, 11th and 13th overtones. 25 mM HEPES buffer (pH=7.40 at 25° C.) was used as the flow medium. Sensors were mounted in the modules immediately after cleaning. […] Then solutions of catechol-bearing peptide (OGP-(Cat)4) in HEPES buffer were introduced and the flow continued until the adsorption reached its equilibrium state. If necessary, solutions at higher concentrations were introduced sequentially. Lastly, HEPES buffer was introduced again to wash the adsorbed layer. Three independent measurements were done simultaneously. The results are reported on FIG. 5.
The QCM-d measurements in Example 7 above may be used to calculate the adsorbed area mass. The adsorbed area mass was proportional to the frequency shift (Δf) and calculated by the Sauerbrey Equation. Sauerbrey Equation is
[formula] where C is the mass sensitivity constant with the value of 17.7 ng Hz^−1 cm^−2 for 5 MHz fundamental frequency crystal, n is the frequency overtone number, and n=7 was chosen to calculate the adsorption area mass. As long as the adsorbed mass is small compared to the crystal, sufficiently thin, and has limited viscoelastic coupling with the surrounding medium (ΔD<1×10^−6 per 10 Hz), this relationship is valid. […]

[11] = QCM-d adsorption of OGP-(Cat)4 to SiO2; assay type: binding
Experimental: as §1, §2

| SMILES | mean fluorescence intensity after incubation [1] | viability at 24 h [2] | adsorption to Al2O3 [3] | adsorption to hydroxyapatite (HA) [4] | binding to CeO2 [5] | binding to ZrO2 [6] | binding to iron oxide [7] | incubation time after which decrease of N1s signal was detected [8] | adsorption to gold ([9]; c=1 μM) | adsorption to Au ([9]; c=10 μM) | concentration to obtain ~6 Hz frequency shift [10] | Kd ([10]; TiO2 surface) | apparent disassociation constant Kd ([10]; TiO2 surface) | maximum adsorption (Bmax) ([10]; TiO2 surface) | binding to TiO2 ([10]; c=1 μM) | enhancement parameter β = Ka,multi/Ka,mono ([10]; multivalent vs monovalent ligand within set with or without PEG linkage) | coverage of binding sites / maximum adsorption on TiO2 ([10]; solution at 100×Kd (2.8 μM) or Kd (28 nmol/L)) | adsorption to SiO2 ([11]; c=1 μM) | adsorption to SiO2 ([11]; c=10 μM) |
| --- | --- | --- | --- | --- | --- | --- | --- | --- | --- | --- | --- | --- | --- | --- | --- | --- | --- | --- | --- |
| O=C(O)CNC(=O)CNC(=O)[C@H](Cc1ccccc1)NC(=O)CNC(=O)[C@H](Cc1ccc(O)cc1)NC(=O)[C@H](CCCCNC(=S)Nc1ccc2c(c1)C(=O)OC21c2ccc(O)cc2Oc2cc(O)ccc21)NC(=O)CCc1ccc(O)c(O)c1 [FITC-labeled OGP-Cat] (Dihydrocaffeoyl-K(FITC)YGFGG-OH) | deceased by about a half | > 98% |  |  |  |  |  |  |  |  |  |  |  |  |  |  |  |  |  |
| O=C(O)CNC(=O)CNC(=O)[C@H](Cc1ccccc1)NC(=O)CNC(=O)[C@H](Cc1ccc(O)cc1)NC(=O)[C@H](CCCCNC(=O)[C@H](CCCCNC(=O)CCc1ccc(O)c(O)c1)NC(=O)CCc1ccc(O)c(O)c1)NC(=O)[C@H](CCCCNC(=O)CCc1ccc(O)c(O)c1)NC(=O)CCc1ccc(O)c(O)c1 [OGP-(Cat)4] (Dihydrocaffeoyl-K(Dihydrocaffeoyl)K(X1)YGFGG-OH) |  |  | weakly adsorbed; also recorded: Limited adsorption | weakly adsorbed; also recorded: Limited adsorption | strongest binding | strongest binding | strong binding | 14 days | some adsorption | relatively strongly adsorbed | 0.32 µM | 31 ± 3 nM | 31 ± 3 nM | 160 ± 6 ng/cm^2 | strongest binding | 184 | 99% | weak adsorption | weakly adsorbed; also recorded: Limited adsorption |
| NCCCC[C@H](NC(=O)CCc1ccc(O)c(O)c1)C(=O)N[C@@H](Cc1ccc(O)cc1)C(=O)NCC(=O)N[C@@H](Cc1ccccc1)C(=O)NCC(=O)NCC(=O)O [OGP-Cat] (Dihydrocaffeoyl-KYGFGG-OH) |  |  |  |  |  |  |  | 0.5 days |  |  | 13 µM |  | 5700 ± 200 nM | 54 ± 4 ng/cm^2 |  |  |  |  |  |
